Reference: US9040714B2 (MannKind Corporation, priority 2010, dated 2015)
Where two headings read alike, the source gives them in different places.

Assays:
[1] = tested on: IRE-1α-mediated XBP-1 splicing in human myeloma MM.1s cells; test: Cellular EC50: endogenous XBP-1 splicing in myeloma cells by RT-PCR (DTT stress); format: cell-based; details: MM1.S, read-out: EC50_av
How it was run: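 MM.1s myeloma cells were pretreated with compound 1.25 h, then stressed with 2 mM DTT for 45 min more (2 h total). XBP-1 was amplified by RT-PCR from total RNA with intron-flanking primers; ED50 taken at 50% spliced XBP-1s of total XBP-1.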

[2] = target: human IRE-1α (GST-IRE-1α) (Homo sapiens (Human), UniProt O75460); test: IRE-1α assay in vitro: cleavage of Cy5/BHQ2-labelled mini-XBP-1 mRNA stem-loop substrate; format: biochemical; details: average IC50 for inhibition of IRE-1α
[3] = tested on: XBP-1 splicing in RPMI 8226 cells; test: Inhibition of thapsigargin-induced endogenous XBP-1 splicing in RPMI 8226 cells (RT-PCR); format: cell-based, human; details: 300 nM, 2 hours
Description: PCR amplification products were run on a 4% agarose gel and stained with ethidium bromide. The inverse image is shown.
Cell Culture. RPMI 8226 cells were grown in monolayer culture using Dulbecco's Modified Eagle Medium (DMEM) supplemented with 10% fetal calf serum (FCS) at 37° C. and 5% CO2. Compounds were kept as 10 mM stock in DMSO at −20° C. and diluted in medium to 10 μM, Thapsigargin (Tg) was resuspended in DMSO and diluted in medium,
RT-qPCR. Procedures for measuring XBP-1s and XBP-1u mRNAs have been described previously (Volkmann et al., J. Biol. Chem. 286, 12743-55, 2011). Briefly, total RNA was harvested from cells or tissue using TRIZOL® (Invitrogen) according to the manufacture's procedures. After ethanol, precipitation and resuspension of the RNA, RIBOGREEN® (Invitrogen) was used to quantify the yield—and normalize the RNA concentration in the source tube containing isolated RNA. RT-PCR was performed by oligo dT priming, […]® II (Invitrogen) and reverse transcription using the […] GOLD® Kit (Applied Biosystems) according to the manufacturer's protocols. Primers for human XBP-1 were
All DNA oligos were purchased from IDT DNA Technologies. PCR reactions were run on a Bio-Rad PTC-100® 96-well thermocycler; heating at 94° C. for 30 seconds, annealing at 58° C. for 30 seconds polymerizing at 72° C. for 30 seconds for 35 cycles. […]

[4] = tested on: human myeloma RPMI8226 tumor xenografts; test: RPMI8226 xenograft efficacy model; format: in vivo, SCID mice; details: 0.75 mg/kg IV twice weekly
Description: SCID mice are evaluated for their ability to support implantation of desired tumor cells in support of model development and characterization. Mice are injected intravenously […] or implanted either subcutaneously (SC) or intraperitoneally (IP). To generate a relevant animal model mimicking human disease, it is desirable that all three approaches are evaluated for improved implantation rates and relevant disease progression, as is well known in the art. SC injections provide an easy way to measure tumor growth and efficacy, and IV and IP injections represent a more physiologically relevant model of human tumor spread. SC injections are given primarily in the flank, while IV injections are administered in the tail vein. Mice are manually restrained for SC and IP injections, and a Broome mouse restrainer is used for IV injections.
SCID mice are implanted with tumor cells (human RPMI8226 myeloma cells) via IP, IV or SC routes based on the results from the xenograft model development studies (above). Mice are treated with compound or mock treated (vehicle) for a period of up to 4-5 weeks. Compound administration can be via IV, IP, PO or SC routes. […]
Mice are monitored for tumor growth, regression and general health. […] Tumor growth is measured by calipers, ultrasound, or by abdominal lavage. Biomarkers in the blood or tumor can evaluated (primarily XBP-1 splicing). […]

[5] = average cellular EC50, XBP-1 splicing in myeloma cells

human IRE-1α (GST-IRE-1α), sequence (O75460 19-977): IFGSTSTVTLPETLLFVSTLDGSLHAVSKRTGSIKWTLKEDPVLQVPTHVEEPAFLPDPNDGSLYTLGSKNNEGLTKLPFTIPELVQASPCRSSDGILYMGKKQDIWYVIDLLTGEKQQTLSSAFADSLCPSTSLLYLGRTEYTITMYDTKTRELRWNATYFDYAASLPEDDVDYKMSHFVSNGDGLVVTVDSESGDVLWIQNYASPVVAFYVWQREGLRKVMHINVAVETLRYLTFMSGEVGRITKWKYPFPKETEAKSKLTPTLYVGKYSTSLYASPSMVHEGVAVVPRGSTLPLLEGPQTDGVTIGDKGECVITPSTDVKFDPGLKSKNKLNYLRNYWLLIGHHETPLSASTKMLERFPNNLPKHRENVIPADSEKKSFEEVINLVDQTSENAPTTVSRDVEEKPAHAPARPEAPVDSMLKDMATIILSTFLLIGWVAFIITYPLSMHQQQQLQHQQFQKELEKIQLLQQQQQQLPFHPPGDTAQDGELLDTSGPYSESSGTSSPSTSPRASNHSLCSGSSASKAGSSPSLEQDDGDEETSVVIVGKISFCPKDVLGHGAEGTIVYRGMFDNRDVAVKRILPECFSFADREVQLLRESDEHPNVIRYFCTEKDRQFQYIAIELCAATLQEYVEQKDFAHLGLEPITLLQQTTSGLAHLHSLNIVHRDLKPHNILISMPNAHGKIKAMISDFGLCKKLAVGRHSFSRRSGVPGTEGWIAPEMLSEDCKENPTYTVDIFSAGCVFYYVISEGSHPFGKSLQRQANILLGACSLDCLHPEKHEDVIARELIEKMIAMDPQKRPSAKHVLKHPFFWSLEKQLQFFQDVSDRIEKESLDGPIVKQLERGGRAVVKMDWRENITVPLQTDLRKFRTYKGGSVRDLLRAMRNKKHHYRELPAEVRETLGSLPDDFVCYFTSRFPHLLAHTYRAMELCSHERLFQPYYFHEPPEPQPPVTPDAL

Row | EC50 [1, 5] [µM] | IC50 [2] [nM] | SMILES | EC50 [1] [µM] | induction of XBP-1s [3] | tumor growth [4]
1 | < 10 | < 1000 | COCOCCNC(=O)Cc1c(C)c2cc(OC)c(O)c(C=O)c2oc1=O [Example 149] |  |  | 
2 | > 10 | < 1000 | Cc1c(-c2ccc(C(=O)NCCN3CCOCC3)cc2)c(=O)oc2c(C=O)c(O)c(Cl)cc12 [Example 151] |  |  | 
3 | < 10 | < 1000 | COCCNC(=O)CCc1c(C)c2c(OCCOC)cc(O)c(C=O)c2oc1=O [Example 152] |  |  | 
4 | < 10 | < 100 | COCCOc1cc(O)c(C=O)c2oc(=O)c(CCC(=O)N3CCOCC3)c(C)c12 [Example 153] |  |  | 
5 | > 10 | < 1000 | COCCOc1cc(O)c(C=O)c2oc(=O)c(CCC(=O)NCCN(C)C)c(C)c12 [Example 157] |  |  | 
6 | < 10 | < 100 | CCNC(=O)Cc1c(C)c2cc(OC)c(O)c(C=O)c2oc1=O [Example 169] |  |  | 
7 | < 10 | < 1000 | COc1cc2c(C)c(CC(=O)NCCN(C)C)c(=O)oc2c(C=O)c1O [Example 170] |  |  | 
8 | > 10 | < 1000 | COc1cc2c(C)c(CCC(=O)NCCN(C)C)c(=O)oc2c(C=O)c1O [Example 175] |  |  | 
9 | < 10 | < 100 | COc1cc(O)c(C=O)c2oc(=O)c(CC(=O)N3CCOCC3)c(C)c12 [Example 177] |  |  | 
10 | < 10 | < 100 | COc1cc(O)c(C=O)c2oc(=O)c(CC(=O)NCCN(C)C)c(C)c12 [Example 180] |  |  | 
11 | < 10 | < 100 | COCCOc1cc2c(C)c(CCC(=O)N3CCOCC3)c(=O)oc2c(C=O)c1O [Example 181] |  |  | 
12 | < 10 | < 100 | COCCNC(=O)CCc1c(C)c2cc(OCCOC)c(O)c(C=O)c2oc1=O [Example 184] |  |  | 
13 | > 10 | < 1000 | COCCOc1cc2c(C)c(CCC(=O)NCCN3CCOCC3)c(=O)oc2c(C=O)c1O [Example 186] |  |  | 
14 | < 10 | < 100 | COc1cc(O)c(C=O)c2oc(=O)c(CCC(=O)N3CCN(C)CC3)c(C)c12 [Example 193] |  |  | 
15 | < 10 | < 100 | COCCNC(=O)CCc1c(C)c2c(OC)cc(O)c(C=O)c2oc1=O [Example 194] |  |  | 
16 | < 10 | < 100 | COc1cc(O)c(C=O)c2oc(=O)c(CCC(=O)NCCN3CCOCC3)c(C)c12 [Example 196] |  |  | 
17 | > 10 | < 100 | COc1cc2c(C)c(C)c(=O)oc2c(C=O)c1O [Example 199] |  |  | 
18 | < 10 | < 100 | Cc1c(CCC(=O)NCCN2CCOCC2)c(=O)oc2c(C=O)c(O)ccc12 [Example 201] |  |  | 

Second part, the compound before the results:

Row | SMILES | EC50 [1, 5] [µM] | IC50 [2] [nM] | EC50 [1] [µM] | induction of XBP-1s [3] | tumor growth [4]
19 | COc1cc2c(C)c(CC(=O)NCCO)c(=O)oc2c(C=O)c1O [Example 148] | > 10 | < 100 |  |  | 
20 | COCCNC(=O)c1ccc(-c2c(C)c3cc(Cl)c(O)c(C=O)c3oc2=O)cc1 [Example 150] |  | < 1000 | > 10 |  | 
21 | COCCOc1cc(O)c(C=O)c2oc(=O)c(CCC(=O)N3CCN(C)CC3)c(C)c12 [Example 154] |  | < 100 | < 10 |  | 
22 | CCNC(=O)CCc1c(C)c2c(OCCOC)cc(O)c(C=O)c2oc1=O [Example 155] |  | < 1000 | < 10 |  | 
23 | COCCOc1cc(O)c(C=O)c2oc(=O)c(CCC(=O)NCCN3CCOCC3)c(C)c12 [Example 156] | > 10 | < 1000 |  |  | 
24 | COCCNC(=O)Cc1c(C)c2cc(OC)c(O)c(C=O)c2oc1=O [Example 166] | < 10 | < 1000 |  |  | 
25 | COc1cc2c(C)c(CC(=O)N3CCN(C)CC3)c(=O)oc2c(C=O)c1O [Example 168] | < 10 | < 100 |  |  | 
26 | COCCNC(=O)CCc1c(C)c2cc(OC)c(O)c(C=O)c2oc1=O [Example 171] |  | < 100 | < 10 |  | 
27 | COc1cc2c(C)c(CCC(=O)N3CCOCC3)c(=O)oc2c(C=O)c1O [Example 172] | < 10 | < 100 |  |  | 
28 | COc1cc2c(C)c(CCC(=O)N3CCN(C)CC3)c(=O)oc2c(C=O)c1O [Example 173] |  | < 100 | < 10 |  | 
29 | CCNC(=O)CCc1c(C)c2cc(OC)c(O)c(C=O)c2oc1=O [Example 174] | < 10 | < 100 |  |  | 
30 | COCCNC(=O)Cc1c(C)c2c(OC)cc(O)c(C=O)c2oc1=O [Example 176] | < 10 | < 100 |  |  | 
31 | COc1cc(O)c(C=O)c2oc(=O)c(CC(=O)NCCN3CCOCC3)c(C)c12 [Example 179] | < 10 | < 1000 |  |  | 
32 | COCCOc1cc2c(C)c(CCC(=O)N3CCN(C)CC3)c(=O)oc2c(C=O)c1O [Example 182] | < 10 | < 100 |  |  | 
33 | COCCOc1cc2c(C)c(CCC(=O)NCCN(C)C)c(=O)oc2c(C=O)c1O [Example 185] |  | < 100 | > 10 |  | 
34 | COc1cc(O)c(C=O)c2oc(=O)c(CCC(=O)N3CCOCC3)c(C)c12 [Example 192] | < 10 | < 1000 |  |  | 
35 | COc1cc2c(C(F)(F)F)cc(=O)oc2c(C=O)c1O [Example 197] | < 10 | < 1000 |  |  | 
36 | COc1cc2c3c(c(=O)oc2c(C=O)c1O)CCC3 [Example 198] |  | > 1000 | < 10 |  | 
37 | COc1cc2c(C)c(C(C)C)c(=O)oc2c(C=O)c1O [Example 200] |  | < 100 | > 10 |  | 
38 | C/C=C(/C)C(=O)O[C@H]1C(C)=C2[C@H]([C@@H]1OC(=O)CCCCCCC)[C@@](C)(OC(C)=O)C[C@H](OC(=O)CCC)[C@@]1(O)[C@H]2OC(=O)[C@@]1(C)O [Thapsigargin] |  |  |  | near complete conversion of XBP-1u to XBP-1s | 
39 | CC(C)C[C@H](NC(=O)[C@H](Cc1ccccc1)NC(=O)c1cnccn1)B(O)O [bortezomib, [(1R)-3-methyl-1-[[(2S)-1-oxo-3-phenyl-2-[(pyrazinylcarbonyl)amino]propyl]amino]butyl]boronic acid] |  |  |  |  | suppression of tumor growth
